Calls of active or inactive are those of the source.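 How the source made its calls: active means compounds giving half or more protection of infected cells from virus-caused growth loss, again on retest; inactive means the rest.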
Tested on: CEM cells HIV-1 protection, formazan growth assay
Experiment: NCI AIDS Antiviral Assay
Details: for IC50: measured here: growth of uninfected CEM cells
Description: The ability of compounds to protect human CEM cells from HIV-1 infection is measured as a screen for new compounds capable of inhibiting the HIV virus. Five concentrations of drug were tested on uninfected and infected cells and cell growth was measured using a soluble formazan assay. […] Compounds that provided at least 50% protection were retested. Compounds that provided at least 50% protection on retest were listed as moderately active. Compounds that reproducibly provided 100% protection were listed as confirmed active. […] Note that the inability to provide protection could be due to toxicity.

Row | Structure (SMILES) | EC50 | IC50 | outcome
1 | NC(=O)C(F)(Cc1ccccc1)C(=O)O (centres undefined) | > 200 µM | > 200 µM | –
2 | CC(=O)N=C1N(/C=C2\C(=O)Oc3ccccc3C2=O)C(=O)/C(=C/c2cccc(Cl)c2Cl)N1C | > 200 µM | 26.3 µM | –
3 | COc1ccc(CCNC(=S)N/C=C\c2nc3ccccc3[nH]c2=O)cc1OC | – | – | inactive
4 | FC(F)C(F)(F)N1c2ccccc2Sc2ccccc21 | > 200 µM | 72.4 µM | –
5 | COC(=O)C(Cc1c(C2Nc3ccccc3C2CC(NC(C)=O)C(=O)OC)[nH]c2ccccc12)NC(C)=O (centres undefined) | > 200 µM | > 200 µM | –
6 | [N-]=[N+]=NC1(N=[N+]=[N-])C(=O)NN=C(c2ccccc2)C1=O (centres undefined) | – | – | inactive
7 | Cc1cccc(NC(=O)/C(=N\N)C(c2cnc3ccc([N+](=O)[O-])cc3n2)[N+](=O)[O-])c1C (centres undefined) | > 85.1 µM | 66.1 µM | –
8 | O=S(O)CCCCSSCC(O)CO (centres undefined) | > 200 µM | 2.63 µM | –
9 | CN(C)c1nc2ccccc2[nH]1 | – | – | inactive
10 | O=Nc1c(O)[nH]c(=O)[nH]c1=O | > 200 µM | > 200 µM | –
11 | CC(=O)OCC1OC(n2cc(F)c(=O)[nH]c2=O)C(NC(=O)N(CCCl)N=O)C(OC(C)=O)C1OC(C)=O (centres undefined) | > 457 µM | 66.1 µM | –
12 | CC(=O)O[C@H]1[C@@H]2[C@@H](C[C@H](C)[C@H]3C=CC(=O)[C@@]31C)OC(=O)[C@@H]2C | > 200 µM | 34.7 µM | –
13 | COC(=O)c1ccccc1NC(=O)C(=O)CC(=O)c1ccccc1NC1=CC(=O)C(=O)c2ccccc21 | > 27.5 µM | 4.68 µM | –
14 | C[C@@]12C(=O)OC(=O)[C@]1(C)[C@H]1CC[C@@H]2O1 | > 347 µM | 4.9 µM | –
15 | N#Cc1cc2c(cc1Cl)Sc1nccn1S2(=O)=O | > 200 µM | 0.851 µM | –
16 | Nc1c([N+](=O)[O-])nc(Cl)c2nncn12 | > 234 µM | 120 µM | –
17 | COC1=C(N)C(=O)c2ncccc2C1=O | – | – | inactive
18 | COc1ccc(N2C(=O)C3c4[nH]c5cc(Cl)ccc5c4C4CCC(C(C)(C)C)CC4C3C2=O)cc1 (centres undefined) | > 200 µM | 91.2 µM | –
19 | Nc1c(Cl)cc(/C=C2\C=Cc3ccccc32)cc1Cl | > 18.2 µM | > 18.2 µM | –
20 | CCOP(=O)(OCC)C(C)(C)OC(=O)NC(F)(F)F | > 200 µM | > 200 µM | –
21 | COC(=O)C1=C(C)N2[C@H](C(=O)O)CO[C@@]2(C)[C@H](C(=O)OC)[C@H]1c1cccc([N+](=O)[O-])c1 | > 200 µM | > 200 µM | –
22 | Cc1cc(=O)c2c(o1)C(=O)c1occc1C2=O | – | – | inactive

Row | Structure (SMILES) | EC50 | IC50 | outcome
23 | COC(=O)N1C=NC2C3(C)C(C)=C(C)C3(C)C21C (centres undefined) | > 263 µM | 151 µM | –
24 | COc1ccc2nc3c([N+](=O)[O-])ccc(NCCCN(C)C)c3c(N)c2c1 | > 200 µM | 0.195 µM | –
25 | O=C(O)c1ccc(O)c(N=Nc2cc(S(=O)(=O)O)c3ccccc3c2O)c1 | > 25.7 µM | > 25.7 µM | –
26 | O=C1c2ccccc2-c2cc3ccccc3c(=O)n21 | – | – | inactive
27 | O=C(NP(=O)(N1CC1)N1CC1)OCc1ccccc1 | > 200 µM | > 200 µM | –
28 | O=C(Nc1ccc(N=Nc2ccc(S(=O)(=O)O)cc2)cc1)c1ccc(N=Nc2c(S(=O)(=O)O)cc(O)c3c(NC(=O)c4ccccc4)cc(S(=O)(=O)O)cc23)cc1 | – | – | active
29 | CN1c2ccccc2N(C)C2C1N(C)c1ccccc1N2C (centres undefined) | > 64.6 µM | 11 µM | –
30 | CC(=O)N(C[C@H]1CN(Cc2ccccc2)CC[C@H]1O)C12CC3CC(CC(C3)C1)C2 | > 91.2 µM | 69.2 µM | –
31 | COC(=O)C(=O)/C(=C\N1C(=O)CC(=O)NC1=S)C(=O)c1ccc([N+](=O)[O-])cc1 | > 200 µM | > 200 µM | –
32 | NNC(=O)N/N=C1\C(=O)N(c2nccs2)C(=O)C(=O)C1c1nc2ccccc2s1 (centres undefined) | > 2.45 µM | > 2.45 µM | –
33 | O=C1CC2(CCC(O)(c3cccc4ccccc34)C(C(=O)c3cccc4ccccc34)C2)C(=O)c2ccccc2N1 (centres undefined) | > 200 µM | 110 µM | –
34 | CC(=O)c1ccc(NC(=O)C(=O)C(C(=O)c2ccc(Cl)c(Cl)c2)C2OC(=O)c3ccccc32)cc1 (centres undefined) | > 87.1 µM | 12.6 µM | –
35 | CC1=C(C)CS(=O)N(c2ccccc2)C1 (centres undefined) | > 200 µM | 89.1 µM | –
36 | c1ccc(-c2nnc(-c3ccccc3)c3nonc23)cc1 | > 95.5 µM | > 95.5 µM | –
37 | N#CI1OC(=O)c2ccccc21 | > 200 µM | > 100 µM | –
38 | O=C1CCC(C(Sc2ccccc2)(Sc2ccccc2)Sc2ccccc2)C1 (centres undefined) | > 200 µM | 38.9 µM | –
39 | CC1(C)OC2OC(COC(=O)c3ccccc3)C(=O)C2O1 (centres undefined) | > 200 µM | 13.8 µM | –
40 | CC(C)(C)c1ccc(OC2CCO2)cc1 (centres undefined) | > 34.7 µM | > 34.7 µM | –
41 | Cc1cccc2c(=O)c3cccc(CC(=O)O)c3oc12 | > 200 µM | > 200 µM | –
42 | Cc1c(Cc2ccccc2)n(C(C)OCCO)c(=O)[nH]c1=O (centres undefined) | > 200 µM | > 200 µM | –
43 | COc1cc2c(cc1OC)C1c3ccccc3CN1CC2 (centres undefined) | > 200 µM | 105 µM | –
44 | COC[C@@H](N=Cc1ccc(OC)cc1)C(C)C | > 200 µM | > 200 µM | –

Row | Structure (SMILES) | EC50 | IC50 | outcome
45 | COC(=O)c1ccccc1C1CN=NC12Cc1cc(C)ccc1C2=O (centres undefined) | > 200 µM | > 200 µM | –
46 | C=C(C)C1=NC(C)(C)CC1=C(C)C | – | – | inactive
47 | CO/N=C1/c2sccc2[C@H](NC(=O)CNC(=O)OC(C)(C)C)[C@@H]1O | > 200 µM | > 200 µM | –
48 | C1CN1c1nc(N2CC2)nc(N2CC2)n1 | > 91.2 µM | 1.05 µM | –
49 | O/N=C(\CC(O)(C(F)(F)F)C(F)(F)F)c1cccs1 | > 200 µM | > 100 µM | –
50 | COc1cccc2c1-c1nc(N)c3c(OC)cccc3c1C2=O | 74.1 µM | > 200 µM | –
51 | CCNc1nc2c(=O)n(C)c(=O)n(C)c2s1 | > 186 µM | > 186 µM | –
52 | CC1C[N+]2(CNC(=O)C3=C(O)C4(O)C(=O)C5=C(O)c6c(O)cccc6C(C)(O)C5CC4C(N(C)C)C3=O)CC(C)O[B-]2(c2ccccc2)O1 (centres undefined) | > 138 µM | 105 µM | –
53 | COP(=O)(CCC1OCCO1)OC | > 200 µM | > 200 µM | –
54 | O=S(=O)(O)c1cc(N=Nc2cc(S(=O)(=O)O)c3cccnc3c2O)ccc1CCc1ccc(N=Nc2cc(S(=O)(=O)O)c3cccnc3c2O)cc1S(=O)(=O)O | 1.7 µM | 9.33 µM | –
55 | C#Cc1cccc(N2C(=O)c3c(c(-c4ccccc4)c(-c4ccc(Cc5ccc(-c6c(-c7ccccc7)c7c(c(-c8ccccc8)c6-c6ccccc6)C(=O)N(c6cccc(C#C)c6)C7=O)cc5)cc4)c(-c4ccccc4)c3-c3ccccc3)C2=O)c1 | > 23.4 µM | > 23.4 µM | –
56 | c1ccc(-c2nc3sc(-c4ccccc4)nc3s2)cc1 | > 200 µM | > 200 µM | –
57 | O=c1[nH][nH]c(=O)n1Cc1cccc(Cn2c(=O)[nH][nH]c2=O)c1 | > 200 µM | > 200 µM | –
58 | O=C1CC2Sc3ccccc3N=C2N1c1ccc(Cl)cc1Cl (centres undefined) | > 269 µM | 47.9 µM | –
59 | CC(=O)/C(=C/n1c(=S)[nH]c2ccc([N+](=O)[O-])cc21)C(=O)Nc1ccc(Cl)cc1 | > 100 µM | > 100 µM | –
60 | O=P1(c2ccccc2)c2ccccc2-c2ccccc21 | > 200 µM | 102 µM | –
61 | C(=C1/CCCCC([n+]2ccccc2)=N1)/c1ccccc1 | – | – | inactive
62 | CCC1(C)NN=c2s/c(=C/c3ccc(OC)cc3)c(=O)n2N1 (centres undefined) | – | – | inactive
63 | CCCCCCCCCCCCCC(=O)OC1C(C)C2(O)C(C=C(CO)CC3(O)C(O)C(C)=CC32)C2C(C)(C)C12OC(C)=O (centres undefined) | – | – | active
64 | CC1=N/C(=C\c2ccc(N(C)C)cc2)C(=O)O1 | > 81.3 µM | > 81.3 µM | –
65 | CCOC(=O)C(Cc1ccccc1)C(=O)OCC | > 105 µM | > 105 µM | –
66 | COC(=O)[C@]1(C)CCC[C@@]2(C)C1CC[C@@]13C=C(C(C)C)[C@@H](CC1=O)CC23 (some centres undefined) | > 200 µM | 36.3 µM | –

Row | Structure (SMILES) | EC50 | IC50 | outcome
67 | NC(=O)c1nnc2cc(F)c(F)cc2c1N | > 200 µM | > 200 µM | –
68 | CC(=O)c1cccc(NC(=O)Nc2cccc(C)n2)c1 | > 56.2 µM | 6.92 µM | –
69 | O=C(NCCCNC(=O)c1ccc2cc(O)c(O)cc2c1)c1ccc2cc(O)c(O)cc2c1 | – | – | inactive
70 | O=C1NC2OC(C(O)CO)C(O)C2O1 (centres undefined) | > 200 µM | > 200 µM | –
71 | CCCCCCOc1ccc(C(=N)N(CCCC)CCCC)c2ccccc12 | > 200 µM | 3.39 µM | –
72 | FC(F)(F)C1(C(F)(F)F)OC(Cl)(Cl)C(Cl)(Cl)O1 | > 200 µM | > 200 µM | –
73 | O=C1CC(c2ccccc2)n2c(nc3ccccc32)N1 (centres undefined) | > 151 µM | 67.6 µM | –
74 | COc1ccc(CN=CN/C(C#N)=C(\N)C#N)cc1OC | > 200 µM | > 200 µM | –
75 | Cc1[nH]n(-c2ccccc2)c(=O)c1C=NC(=S)C(N)=S | > 200 µM | 56.2 µM | –
76 | NNC(=O)c1n[nH]n(N)c1=S | > 200 µM | > 200 µM | –
77 | Cc1nc(-c2cccnc2)sc1C(=O)/C=C/c1ccc(Cl)cc1Cl | > 19.1 µM | > 19.1 µM | –
78 | CCCCOC(=O)C1CSSCC(NC(C)=O)C(=O)N1 (centres undefined) | > 200 µM | 112 µM | –
79 | O=[N+]([O-])c1ccc(C2Nc3cc(Cl)c(Cl)cc3S(=O)(=O)N2O)cc1 (centres undefined) | > 93.3 µM | 64.6 µM | –
80 | CCOc1ccccc1-c1nc2c(s1)C(=O)c1ccccc1C2=O | > 200 µM | 32.4 µM | –
81 | COc1ccc(Cc2nnc(C)c3c(C)[nH]nc23)cc1OC | – | – | inactive
82 | S=c1sc(-c2ccccc2)c[se]1 | > 50.1 µM | 29.5 µM | –
83 | Cc1cc2c(=O)cc(-c3ccc(C(F)(F)F)cc3)oc2c(C(=O)O)c1C | – | – | inactive
84 | C/C(=N/NC(=S)Nc1ccc(Cl)cc1)c1cccc(/C(C)=N\NC(=S)Nc2ccc(Cl)cc2)n1 | > 200 µM | 6.76 µM | –
85 | O=C(O)c1ccc(P(=O)(O)c2ccc(C(=O)O)cc2Br)c(Br)c1 | > 200 µM | > 200 µM | –
86 | O=C(O)C1Cc2c([nH]c3ccccc23)C(C2CCNC2=S)N1 (centres undefined) | – | – | inactive
87 | C=CCC(=S)NCCc1c[nH]c2ccccc12 | > 200 µM | 120 µM | –
